Experimental data: ChEMBL document CHEMBL5150027, “The inhibition of monoamine oxidase by 2H-1,4-benzothiazin-3(4H)-ones” (Bioorg Med Chem Lett, 2022)

Legend:
[1] = target: D-amino-acid oxidase (Sus scrofa, UniProt P00371); assay: Inhibition of porcine kidney DAAO using D-serine as substrate assessed as H2O2 formation by amplex red and peroxidase-coupled continuous fluorescence spectrophotometric analysis
[2] = target: T1, Amine oxidase [flavin-containing] A (Homo sapiens, UniProt P21397); assay: Inhibition of recombinant human MAO-A using kynuramine as substrate assessed as inhibition of 4-hydroxyquinoline formation incubated for 20 mins by fluorescence spectrophotometric analysis
T1 sequence (P21397 whole entry): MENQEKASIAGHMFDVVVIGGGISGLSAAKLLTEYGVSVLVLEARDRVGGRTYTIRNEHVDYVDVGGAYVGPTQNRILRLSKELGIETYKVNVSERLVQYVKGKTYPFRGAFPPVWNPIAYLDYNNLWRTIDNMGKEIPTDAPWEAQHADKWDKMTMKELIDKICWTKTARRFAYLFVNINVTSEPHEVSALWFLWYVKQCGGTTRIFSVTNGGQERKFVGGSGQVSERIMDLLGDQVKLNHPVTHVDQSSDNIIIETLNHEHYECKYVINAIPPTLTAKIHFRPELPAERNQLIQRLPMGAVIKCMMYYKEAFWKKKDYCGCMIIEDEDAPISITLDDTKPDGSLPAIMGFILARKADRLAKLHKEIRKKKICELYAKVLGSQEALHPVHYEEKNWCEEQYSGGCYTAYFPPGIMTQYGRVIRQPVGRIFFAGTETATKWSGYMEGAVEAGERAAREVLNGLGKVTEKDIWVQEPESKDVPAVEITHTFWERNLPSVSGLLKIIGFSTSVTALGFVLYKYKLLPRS

[3] = target: T2, Amine oxidase [flavin-containing] B (Homo sapiens, UniProt P27338)
T2 sequence (P27338 whole entry): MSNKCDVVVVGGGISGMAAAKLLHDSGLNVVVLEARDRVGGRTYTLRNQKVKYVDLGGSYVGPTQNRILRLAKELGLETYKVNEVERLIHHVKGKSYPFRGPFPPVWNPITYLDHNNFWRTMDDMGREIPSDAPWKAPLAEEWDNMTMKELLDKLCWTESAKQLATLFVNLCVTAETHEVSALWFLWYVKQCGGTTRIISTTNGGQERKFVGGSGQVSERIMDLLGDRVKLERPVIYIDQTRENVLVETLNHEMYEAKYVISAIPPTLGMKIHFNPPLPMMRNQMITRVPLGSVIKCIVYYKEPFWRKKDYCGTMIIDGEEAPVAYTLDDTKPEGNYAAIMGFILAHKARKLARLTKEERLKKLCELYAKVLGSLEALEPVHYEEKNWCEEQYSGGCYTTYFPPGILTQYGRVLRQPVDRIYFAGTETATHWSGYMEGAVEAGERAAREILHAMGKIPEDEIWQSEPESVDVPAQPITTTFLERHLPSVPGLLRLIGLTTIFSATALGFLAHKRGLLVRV

[4] = target: T2, Amine oxidase [flavin-containing] B; assay: Competitive inhibition of recombinant human MAO-B using kynuramine as substrate assessed as enzyme-inhibitor dissociation constant at varying substrate concentration by Lineweaver-burk plot analysis

Chain of D-amino-acid oxidase (P00371 whole entry): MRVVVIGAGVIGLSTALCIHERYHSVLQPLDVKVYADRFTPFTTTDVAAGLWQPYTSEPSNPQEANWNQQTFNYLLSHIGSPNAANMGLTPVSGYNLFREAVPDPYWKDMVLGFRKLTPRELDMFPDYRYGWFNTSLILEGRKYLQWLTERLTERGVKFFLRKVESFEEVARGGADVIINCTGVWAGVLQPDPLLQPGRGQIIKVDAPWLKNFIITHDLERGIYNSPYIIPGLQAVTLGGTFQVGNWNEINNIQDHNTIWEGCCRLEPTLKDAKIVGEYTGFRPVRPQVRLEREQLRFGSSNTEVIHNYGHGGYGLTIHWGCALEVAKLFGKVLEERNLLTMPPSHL

Row | SMILES | IC50 [1] [µM] | IC50 [2] [µM] | IC50 [3] [µM] | Ki [4] [µM]
1 | O=C1CSc2cc(OCCCc3ccccc3)ccc2N1 |  | 96.8 | 0.02 | 
2 | CCCOc1ccc2c(c1)SCC(=O)N2 |  | 6.51 | 2.87 | 
3 | O=C1CSc2cc(OCCc3ccccc3)ccc2N1 |  | 13.1 | 0.167 | 
4 | COc1ccc2c(c1)SCC(=O)N2 |  | 21.1 | 42.6 | 
5 | O=C1CSc2cc(OCC3CCCCC3)ccc2N1 |  | 1.17 | 0.024 | 
6 | O=C1CSc2cc(O)ccc2N1 | 4.2 | 19.2 | 20 | 

Now from value to molecule:

Row | IC50 [1] [µM] | IC50 [2] [µM] | IC50 [3] [µM] | Ki [4] [µM] | SMILES
7 | 73.2 | 24.4 | 0.0027 |  | O=C1CSc2cc(OCc3ccc(Cl)cc3)ccc2N1
8 |  | 8.06 | 0.071 |  | O=C1CSc2cc(OCc3ccccc3)ccc2N1
9 |  |  | 0.0082 |  | Cc1ccc(COc2ccc3c(c2)SCC(=O)N3)cc1
10 |  | 15.6 | 0.0041 |  | O=C1CSc2cc(OCc3ccc(Br)cc3)ccc2N1
11 | 47.5 | 0.714 | 0.0096 | 0.0067 | N#Cc1ccc(COc2ccc3c(c2)SCC(=O)N3)cc1
